Data published in ChEMBL document CHEMBL1155287, “Discovery of a small molecule inhibitor through interference with the gp120-CD4 interaction” (Bioorg Med Chem Lett, 2009).

How the values were obtained:
[1] = Cytotoxicity against human HeLaP4 cells; type: cell-based
[2] = Inhibition of HIV1 JRFL gp120-mediated CHO cells fusion to HeLaP4 cells by HIV LTR-beta galactosidase reporter assay; type: cell-based; details: Human immunodeficiency virus 1, JRFL
in vitro [3] = details: human, liver microsomes
[4] = Lipophilicity, log D at pH 7.4; type: physicochemical; details: buffer
[5] = Bioavailability in rat at 1 mg/kg; type: ADME, organism-based; details: in vivo
[6] = Volume of distribution in rat at 1 mg/kg, iv and 1 mg/kg, po; type: ADME, organism-based; details: in vivo
[7] = test system: Human immunodeficiency virus 1; test: Antiviral activity against Human immunodeficiency virus 1 NL4-3 assessed as inhibition of viral entry in HeLaP4 cells after 5 days by beta galactosidase reporter assay; type: functional, organism-based; details: Human immunodeficiency virus 1, NL4-3, HeLaP4, 120 h
[8] = test system: Human immunodeficiency virus 1; test: Antiviral activity against Human immunodeficiency virus 1 3B infected human PBMC cells by Phenosense assay; type: functional, organism-based
in vitro [9] = details: rat, liver microsomes
[10] = test system: Human immunodeficiency virus 1; test: Antiviral activity against Human immunodeficiency virus 1 BR92023 infected human PBMC cells by Phenosense assay; type: functional, organism-based; details: Human immunodeficiency virus 1, BR92023, PBMC
[11] = test system: Human immunodeficiency virus 1; test: Antiviral activity against Human immunodeficiency virus 1 BaL infected human PBMC cells by Phenosense assay; type: functional, organism-based
[12] = Half life in rat at 1 mg/kg, iv and 1 mg/kg, po; type: ADME, organism-based; details: in vivo
[13] = test system: Human immunodeficiency virus 1; test: Antiviral activity against Human immunodeficiency virus 1 BR92004 infected human PBMC cells by Phenosense assay; type: functional, organism-based; details: Human immunodeficiency virus 1, BR92004, PBMC
[14] = Plasma protein binding in rat at 1 mg/kg, iv and 1 mg/kg, po; type: ADME, organism-based; details: read-out: PPB (converted)
[15] = Clearance in rat at 1 mg/kg, iv and 1 mg/kg, po; type: ADME, organism-based; details: in vivo

Structure (SMILES) | CC50 [1] | IC50 [2] | microsomal CLint (in vitro [3]) | logD [4] | also measured
CNC(=O)c1ccc(OC(C)C(=O)N2CCN(C(=O)c3ccccc3)C[C@H]2C)cc1 (mixture of isomers) | > 10000 nM | 2600 nM | < 8 µL/min/mg | 1.1 | –
CC(Oc1ccccc1C(=O)N(C)C)C(=O)N1CCN(C(=O)c2ccccc2)C[C@H]1C (mixture of isomers) | > 10000 nM | > 25000 nM | 31 µL/min/mg | 1.1 | –
CNC(=O)c1ccccc1OC(C)C(=O)N1CCN(C(=O)c2ccccc2)C[C@H]1C (mixture of isomers) | > 10000 nM | > 25000 nM | 23 µL/min/mg | 1.5 | –
CNC(=O)c1ccc(OC(C)C(=O)N2CCN(C(=O)c3ccccc3)C[C@H]2C)c(C)c1 (mixture of isomers) | > 10000 nM | 2900 nM | < 8 µL/min/mg | 1.8 | –
CNC(=O)c1ccc(O[C@H](C)C(=O)N2CCN(C(=O)c3ccccc3)C[C@H]2C)c(OC)c1 | > 10000 nM | > 2000 nM | – | – | –
CCOc1cc(C(=O)NC)ccc1OC(C)C(=O)N1CCN(C(=O)c2ccccc2)C[C@H]1C (mixture of isomers) | > 10000 nM | > 2000 nM | – | – | –
Cc1c(OC(C)C(=O)N2CCN(C(=O)c3ccccc3)C[C@H]2C)cccc1-c1ncno1 (mixture of isomers) | > 10000 nM | 75 nM | 141 µL/min/mg | 2.1 | –
CNC(=O)c1cccc(OC(C)C(=O)N2CCN(C(=O)c3ccccc3)C[C@H]2C)c1C (mixture of isomers) | > 10000 nM | 12000 nM | < 8 µL/min/mg | 1.2 | –
CNC(=O)c1cc(OC)c(O[C@@H](C)C(=O)N2CCN(C(=O)c3ccccc3)C[C@H]2C)cn1 (mixture of isomers) | > 10000 nM | 11 nM | < 8 µL/min/mg | 0.7 | bioavailability [5]: 65%; Vd [6]: 1.5 L/kg; IC50 [7]: 2 nM; IC50 [8]: 10 nM; half-life (in vitro [9]): > 2 h; IC50 [10]: 0.6 nM; IC50 [11]: 25 nM; half-life [12]: 1 h; IC50 [13]: 6 nM; fraction unbound [14]: 0.69
Cc1ccc(OC(C)C(=O)N2CCN(C(=O)c3ccccc3)C[C@H]2C)cc1C (mixture of isomers) | > 10000 nM | 100 nM | 158 µL/min/mg | – | –
CNC(=O)c1ccc(O[C@@H](C)C(=O)N2CCN(C(=O)c3ccccc3)C[C@H]2C)c(OC)n1 (mixture of isomers) | > 10000 nM | 257 nM | – | – | –
CNC(=O)c1ccc(OC(C)C(=O)N2CCN(C(=O)c3ccccc3)C[C@H]2C)cc1OC (mixture of isomers) | > 10000 nM | 2700 nM | – | – | –
CNC(=O)c1ccc(OC(C)C(=O)N2CCN(C(=O)c3ccccc3)C[C@H]2C)cc1C (mixture of isomers) | > 10000 nM | 1000 nM | < 8 µL/min/mg | 1.1 | –
CC(Oc1cccc(Cl)c1)C(=O)N1CCN(C(=O)c2ccccc2)C[C@H]1C (stereo not given in full) | > 10000 nM | 1000 nM | – | – | –
CNC(=O)c1cccc(OC(C)C(=O)N2CCN(C(=O)c3ccccc3)C[C@H]2C)c1OC (mixture of isomers) | > 10000 nM | > 10000 nM | < 8 µL/min/mg | 1 | –
CC(Oc1ccc(C(=O)N(C)C)cc1)C(=O)N1CCN(C(=O)c2ccccc2)C[C@H]1C (mixture of isomers) | > 10000 nM | > 25000 nM | < 8 µL/min/mg | 0.9 | –
CNC(=O)c1ccc(OC(C)C(=O)N2CCN(C(=O)c3ccccc3)C[C@H]2C)c(F)c1 (mixture of isomers) | > 10000 nM | 2000 nM | < 8 µL/min/mg | 1.4 | –
CNC(=O)c1ccc(O[C@@H](C)C(=O)N2CCN(C(=O)c3ccccc3)C[C@H]2C)c(OC)c1 | > 10000 nM | 17 nM | < 8 µL/min/mg | 1 | bioavailability [5]: 48%; Vd [6]: 4.3 L/kg; IC50 [7]: 3 nM; clearance [15]: 75 mL/min/kg; half-life (in vitro [9]): > 2 h; half-life [12]: 0.7 h; fraction unbound [14]: 0.81
CC(Oc1cccc(C(=O)N(C)C)c1)C(=O)N1CCN(C(=O)c2ccccc2)C[C@H]1C (mixture of isomers) | > 10000 nM | > 25000 nM | 12 µL/min/mg | 1 | –
CNC(=O)c1cccc(OC(C)C(=O)N2CCN(C(=O)c3ccccc3)C[C@H]2C)c1 (mixture of isomers) | > 10000 nM | 1400 nM | < 8 µL/min/mg | 1.3 | –
CC(Oc1cccc(-c2ccn[nH]2)c1)C(=O)N1CCN(C(=O)c2ccccc2)C[C@H]1C (mixture of isomers) | > 10000 nM | 35 nM | 61 µL/min/mg | 2.3 | –
